# Laboratory results as given in the supplement of paper PMC10307832.
# Assays:
# Assay in all cases: relative viability (nuclei count vs DMSO), 5 days (fraction); higher = more cells survive
# [1] = compound: CO[C@@H]1[C@H](N(C)C(=O)c2ccccc2)C[C@H]2O[C@]1(C)n1c3ccccc3c3c4c(c5c6ccccc6n2c5c31)C(=O)NC4 [Midostaurin] + Cc1nc(NC(=O)N2CCC[C@H]2C(N)=O)sc1-c1ccnc(C(C)(C)C(F)(F)F)c1 [Alpelisib] (partner 2 µM)
# How it was run: (§1)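 One day after seeding in 1536-well plates, lung cancer cell lines were dosed by pin tool. Dosing was either single-drug or a fixed anchor-drug dose plus five library-drug doses (not always all listed) in √10 steps. After 5 days, nuclei were stained in one fix-and-stain step and counted on 4× images, and relative viability is the nuclei count of treated wells over that of vehicle wells, given as the median of duplicate plates.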
# [2] = compound: COc1cc(-c2nn([C@H]3CC[C@H](N4CCN(C(C)=O)CC4)CC3)c3ncnc(N)c23)ccc1NC(=O)c1cc2ccccc2n1C + COc1cc2c(Oc3ccc(NC(=O)C4(C(=O)Nc5ccc(F)cc5)CC4)cc3F)ccnc2cc1OCCCN1CCOCC1 [Foretinib] (partner 0.25 µM)
# How it was run: as §1
# [3] = compound: CO[C@@H]1[C@H](N(C)C(=O)c2ccccc2)C[C@H]2O[C@]1(C)n1c3ccccc3c3c4c(c5c6ccccc6n2c5c31)C(=O)NC4 [Midostaurin] + Cc1nc(Nc2ncc(C(=O)Nc3c(C)cccc3Cl)s2)cc(N2CCN(CCO)CC2)n1 [Dasatinib] (partner 0.075 µM)
# How it was run: as §1
# [4] = compound: COc1cc(-c2nn([C@H]3CC[C@H](N4CCN(C(C)=O)CC4)CC3)c3ncnc(N)c23)ccc1NC(=O)c1cc2ccccc2n1C + C[C@@H](Oc1cc(-c2cnn(C3CCNCC3)c2)cnc1N)c1c(Cl)ccc(F)c1Cl [Crizotinib] (partner 1 µM)
# How it was run: as §1
# [5] = compound: COc1cc(-c2nn([C@H]3CC[C@H](N4CCN(C(C)=O)CC4)CC3)c3ncnc(N)c23)ccc1NC(=O)c1cc2ccccc2n1C + CC(=O)c1c(C)c2cnc(Nc3ccc(N4CCNCC4)cn3)nc2n(C2CCCC2)c1=O [Palbociclib] (partner 0.5 µM)
# How it was run: as §1
Cell Line,relative viability ([1]; first compound 0.01 µM),relative viability ([1]; first compound 0.03162 µM),relative viability ([1]; first compound 0.1 µM),relative viability ([1]; first compound 0.3162 µM),relative viability ([2]; first compound 0.0128 µM),relative viability ([2]; first compound 0.04048 µM),relative viability ([2]; first compound 0.128 µM),relative viability ([2]; first compound 1.28 µM),relative viability ([3]; first compound 0.01 µM),relative viability ([3]; first compound 0.03162 µM),relative viability ([3]; first compound 0.1 µM),relative viability ([3]; first compound 0.3162 µM),relative viability ([4]; first compound 0.0128 µM),relative viability ([4]; first compound 0.04048 µM),relative viability ([4]; first compound 0.128 µM),relative viability ([4]; first compound 1.28 µM),relative viability ([5]; first compound 0.0128 µM),relative viability ([5]; first compound 0.04048 µM),relative viability ([5]; first compound 0.128 µM),relative viability ([5]; first compound 1.28 µM)
NCI-H596,0.587,0.546,0.508,0.432,0.884,0.835,0.709,0.558,0.661,0.662,0.646,0.729,0.943,1.2,1.01,0.64,,,,
NCI-H1299,1.03,1.05,1.04,1.03,1.13,1.23,1.14,1.08,,,,,0.966,1.07,0.987,1.13,,,,
NCI-H1395,1.09,1.08,1.3,1.22,0.975,0.95,0.9,0.72,0.435,0.38,0.404,0.403,,,,,0.656,0.647,0.589,0.497
NCI-H1563,1.09,1.07,0.907,0.78,0.913,0.997,0.936,0.685,0.402,0.469,0.43,0.465,0.625,0.805,0.926,0.729,,,,
NCI-H1623,,,,,0.855,0.696,0.763,0.595,0.53,0.594,0.507,0.652,,,,,,,,
NCI-H1648,,,,,,,,,,,,,,,,,0.263,0.275,0.242,0.333
NCI-H1650,,,,,1.07,1.45,1.14,0.911,0.336,0.34,0.254,0.254,0.898,1.07,0.957,0.638,0.342,0.409,0.306,0.268
NCI-H1703,0.343,0.369,0.27,0.209,0.297,,0.262,0.167,,,,,0.585,0.73,0.496,0.206,,,,
NCI-H1792,0.703,0.672,0.63,0.654,,,,,0.793,0.779,0.669,0.611,0.958,1.01,0.88,0.896,0.663,0.626,0.657,0.636
NCI-H1793,0.705,0.601,0.664,0.662,0.669,0.809,0.648,0.406,0.481,0.38,0.345,0.362,,,,,0.367,0.342,0.261,0.239
NCI-H2342,,,,,0.958,1.11,0.914,0.731,0.332,0.305,0.319,0.327,,,,,0.503,0.487,0.517,0.514
SW 900,,,,,0.813,0.91,0.843,0.66,0.7,0.684,0.538,0.275,,,,,0.564,0.584,0.538,0.353
